Values belong to the compound of their own block, whether it stands above or below them.
What was measured:
[1] = target: Serine/threonine-protein kinase Chk2 (Homo sapiens) (UniProt O96017); assay: Inhibition of CHK2 (unknown origin) at 0.1 uM relative to control
[2] = target: Tyrosine-protein kinase Fes/Fps (Homo sapiens) (UniProt P07332); assay: Inhibition of Fes (unknown origin) at 0.1 uM relative to control
[3] = organism: Homo sapiens; assay: Inhibition of KHS1 (unknown origin) at 0.1 uM relative to control
[4] = target: Tyrosine-protein kinase Lyn (Homo sapiens) (UniProt P07948); assay: Inhibition of LynB (unknown origin) at 0.1 uM relative to control
Sequence of Tyrosine-protein kinase Lyn (Homo sapiens) (P07948 2-512 limits assumed): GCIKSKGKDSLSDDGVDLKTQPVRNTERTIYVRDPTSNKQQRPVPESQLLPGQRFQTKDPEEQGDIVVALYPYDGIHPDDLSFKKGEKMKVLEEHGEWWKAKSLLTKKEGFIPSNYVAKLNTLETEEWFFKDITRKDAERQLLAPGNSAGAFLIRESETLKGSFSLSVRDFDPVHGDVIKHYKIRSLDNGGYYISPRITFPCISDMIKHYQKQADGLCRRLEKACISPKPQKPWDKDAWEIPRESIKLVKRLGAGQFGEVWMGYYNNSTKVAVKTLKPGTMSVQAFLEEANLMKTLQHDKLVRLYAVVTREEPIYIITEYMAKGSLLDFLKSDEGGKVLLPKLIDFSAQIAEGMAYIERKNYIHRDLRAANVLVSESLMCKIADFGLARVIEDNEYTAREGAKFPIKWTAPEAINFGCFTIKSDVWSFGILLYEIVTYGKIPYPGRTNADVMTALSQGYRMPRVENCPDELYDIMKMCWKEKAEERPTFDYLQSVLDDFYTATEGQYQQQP

[5] = target: Angiopoietin-1 receptor (Homo sapiens) (UniProt Q02763); assay: Inhibition of Tie2 (unknown origin) at 0.1 uM relative to control
[6] = target: NUAK family SNF1-like kinase 1 (Homo sapiens) (UniProt O60285); assay: Inhibition of ARK5 (unknown origin) at 0.1 uM relative to control
[7] = target: CDK8/Cyclin C (Homo sapiens) (UniProt P49336+P24863); assay: Inhibition of CDK8/CyclinC (unknown origin) at 0.1 uM relative to control; assay type: protein-complex assay
[8] = target: LIM domain kinase 1 (Homo sapiens) (UniProt P53667); assay: Inhibition of LIMK1 (unknown origin) at 0.1 uM relative to control
[9] = organism: Homo sapiens; assay: Inhibition of CDK2/cyclinA (unknown origin) at 0.1 uM relative to control
[10] = target: Casein kinase I isoform delta (Homo sapiens) (UniProt P48730); assay: Inhibition of CK1delta (unknown origin) at 0.1 uM relative to control
[11] = target: Casein kinase I isoform gamma-1 (Homo sapiens) (UniProt Q9HCP0); assay: Inhibition of CK1gamma1 (unknown origin) at 0.1 uM relative to control
[12] = target: Dual specificity protein kinase CLK3 (Homo sapiens) (UniProt P49761); assay: Inhibition of CLK3 (unknown origin) at 0.1 uM relative to control
[13] = target: Calcium/calmodulin-dependent protein kinase type II subunit beta (Homo sapiens) (UniProt Q13554); assay: Inhibition of CaMKIIbeta (unknown origin) at 0.1 uM relative to control
Sequence of Calcium/calmodulin-dependent protein kinase type II subunit beta (Homo sapiens) (Q13554 whole entry): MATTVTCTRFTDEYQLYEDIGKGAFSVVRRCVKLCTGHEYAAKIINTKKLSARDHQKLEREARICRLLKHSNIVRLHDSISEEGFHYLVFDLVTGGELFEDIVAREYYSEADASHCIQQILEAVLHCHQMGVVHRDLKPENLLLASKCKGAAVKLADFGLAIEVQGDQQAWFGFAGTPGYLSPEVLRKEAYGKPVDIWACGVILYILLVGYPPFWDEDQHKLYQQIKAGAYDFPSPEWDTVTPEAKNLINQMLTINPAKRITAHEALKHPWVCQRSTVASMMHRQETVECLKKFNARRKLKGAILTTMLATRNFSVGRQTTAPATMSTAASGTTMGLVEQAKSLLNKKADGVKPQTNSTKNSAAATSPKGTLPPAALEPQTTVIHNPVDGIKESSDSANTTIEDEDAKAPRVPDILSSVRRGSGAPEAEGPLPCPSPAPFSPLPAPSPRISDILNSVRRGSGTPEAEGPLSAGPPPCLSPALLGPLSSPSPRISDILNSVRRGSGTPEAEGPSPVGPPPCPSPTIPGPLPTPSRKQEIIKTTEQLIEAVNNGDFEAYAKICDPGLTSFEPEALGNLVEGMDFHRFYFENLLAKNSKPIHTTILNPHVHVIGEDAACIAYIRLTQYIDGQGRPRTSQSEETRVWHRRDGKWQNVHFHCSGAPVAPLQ

[14] = target: Serine/threonine-protein kinase DCLK2 (Homo sapiens) (UniProt Q8N568); assay: Inhibition of DCAMKL2 (unknown origin) at 0.1 uM relative to control
Sequence of Serine/threonine-protein kinase DCLK2 (Homo sapiens) (Q8N568 whole entry): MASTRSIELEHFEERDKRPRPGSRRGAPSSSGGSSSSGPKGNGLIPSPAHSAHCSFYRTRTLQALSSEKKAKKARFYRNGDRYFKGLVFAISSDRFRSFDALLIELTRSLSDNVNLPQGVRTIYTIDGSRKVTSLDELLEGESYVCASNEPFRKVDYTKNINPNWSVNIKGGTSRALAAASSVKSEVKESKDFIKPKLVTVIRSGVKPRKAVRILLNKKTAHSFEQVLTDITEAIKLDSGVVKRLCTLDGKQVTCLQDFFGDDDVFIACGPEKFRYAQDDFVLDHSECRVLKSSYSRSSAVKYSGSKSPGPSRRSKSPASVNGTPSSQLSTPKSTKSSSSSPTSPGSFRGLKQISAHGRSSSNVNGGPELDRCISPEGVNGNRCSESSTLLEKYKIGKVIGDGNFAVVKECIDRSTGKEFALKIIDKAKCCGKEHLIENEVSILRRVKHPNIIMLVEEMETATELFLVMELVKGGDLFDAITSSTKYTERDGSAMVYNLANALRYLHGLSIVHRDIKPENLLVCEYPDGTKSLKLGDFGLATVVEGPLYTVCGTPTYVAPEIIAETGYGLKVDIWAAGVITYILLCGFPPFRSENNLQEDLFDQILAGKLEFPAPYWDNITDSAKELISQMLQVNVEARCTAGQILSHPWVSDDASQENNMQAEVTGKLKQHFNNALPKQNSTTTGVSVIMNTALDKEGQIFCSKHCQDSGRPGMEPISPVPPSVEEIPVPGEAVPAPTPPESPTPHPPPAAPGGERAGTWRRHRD

[15] = target: Dual specificity tyrosine-phosphorylation-regulated kinase 1B (Homo sapiens) (UniProt Q9Y463); assay: Inhibition of DYRK1B (unknown origin) at 0.1 uM relative to control
[16] = target: Ephrin type-B receptor 3 (Homo sapiens) (UniProt P54753); assay: Inhibition of EphB3 (unknown origin) at 0.1 uM relative to control
[17] = target: Focal adhesion kinase 1 (Homo sapiens) (UniProt Q05397); assay: Inhibition of FAK (unknown origin) at 0.1 uM relative to control
[18] = target: Tyrosine-protein kinase Fgr (Homo sapiens) (UniProt P09769); assay: Inhibition of Fgr (unknown origin) at 0.1 uM relative to control
[19] = target: Tyrosine-protein kinase FRK (Homo sapiens) (UniProt P42685); assay: Inhibition of Frk (unknown origin) at 0.1 uM relative to control
[20] = target: Beta-adrenergic receptor kinase 1 (Homo sapiens) (UniProt P25098); assay: Inhibition of GRK2 (unknown origin) at 0.1 uM relative to control
[21] = target: G protein-coupled receptor kinase 3 (Homo sapiens) (UniProt P35626); assay: Inhibition of GRK3 (unknown origin) at 0.1 uM relative to control
[22] = target: Inhibitor of nuclear factor kappa-B kinase subunit epsilon (Homo sapiens) (UniProt Q14164); assay: Inhibition of IKKepsilon (unknown origin) at 0.1 uM relative to control
[23] = target: Tyrosine-protein kinase Lck (Homo sapiens) (UniProt P06239); assay: Inhibition of Lck (unknown origin) at 0.1 uM relative to control
Sequence of Tyrosine-protein kinase Lck (Homo sapiens) (P06239 2-509 limits assumed): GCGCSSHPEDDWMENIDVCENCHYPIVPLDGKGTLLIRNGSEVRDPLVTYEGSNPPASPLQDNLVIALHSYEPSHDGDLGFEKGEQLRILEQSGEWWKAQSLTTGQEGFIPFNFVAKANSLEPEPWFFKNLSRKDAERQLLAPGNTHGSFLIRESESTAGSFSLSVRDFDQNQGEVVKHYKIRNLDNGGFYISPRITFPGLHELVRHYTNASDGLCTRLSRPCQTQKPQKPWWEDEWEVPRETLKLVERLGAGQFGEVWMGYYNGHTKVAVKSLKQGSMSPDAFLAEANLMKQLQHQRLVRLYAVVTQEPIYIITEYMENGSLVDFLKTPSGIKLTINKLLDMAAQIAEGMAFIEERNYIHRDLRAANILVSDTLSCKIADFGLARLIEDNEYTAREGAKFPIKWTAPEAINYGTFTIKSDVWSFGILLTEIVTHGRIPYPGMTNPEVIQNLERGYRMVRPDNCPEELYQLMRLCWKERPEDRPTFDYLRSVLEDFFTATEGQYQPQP

[24] = target: MAP kinase-activated protein kinase 3 (Homo sapiens) (UniProt Q16644); assay: Inhibition of MAPKAPK3 (unknown origin) at 0.1 uM relative to control
Sequence of MAP kinase-activated protein kinase 3 (Homo sapiens) (Q16644 whole entry, looked up): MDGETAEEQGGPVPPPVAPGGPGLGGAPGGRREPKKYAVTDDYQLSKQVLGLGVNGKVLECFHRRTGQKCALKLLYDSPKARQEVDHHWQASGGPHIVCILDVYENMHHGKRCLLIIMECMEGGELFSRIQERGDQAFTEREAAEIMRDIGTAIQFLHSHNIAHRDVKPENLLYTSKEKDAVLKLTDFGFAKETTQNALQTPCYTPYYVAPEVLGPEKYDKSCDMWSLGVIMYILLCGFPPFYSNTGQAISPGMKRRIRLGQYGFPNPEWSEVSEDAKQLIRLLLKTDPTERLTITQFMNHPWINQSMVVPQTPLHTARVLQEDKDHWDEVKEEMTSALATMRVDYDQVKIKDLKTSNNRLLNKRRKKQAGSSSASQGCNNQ

[25] = target: Maternal embryonic leucine zipper kinase (Homo sapiens) (UniProt Q14680); assay: Inhibition of MELK (unknown origin) at 0.1 uM relative to control
[26] = target: MAP kinase-interacting serine/threonine-protein kinase 1 (Homo sapiens) (UniProt Q9BUB5); assay: Inhibition of MKNK1 (unknown origin) at 0.1 uM relative to control
[27] = target: SRSF protein kinase 3 (Homo sapiens) (UniProt Q9UPE1); assay: Inhibition of MSSK1 (unknown origin) at 0.1 uM relative to control
Sequence of SRSF protein kinase 3 (Homo sapiens) (Q9UPE1 whole entry): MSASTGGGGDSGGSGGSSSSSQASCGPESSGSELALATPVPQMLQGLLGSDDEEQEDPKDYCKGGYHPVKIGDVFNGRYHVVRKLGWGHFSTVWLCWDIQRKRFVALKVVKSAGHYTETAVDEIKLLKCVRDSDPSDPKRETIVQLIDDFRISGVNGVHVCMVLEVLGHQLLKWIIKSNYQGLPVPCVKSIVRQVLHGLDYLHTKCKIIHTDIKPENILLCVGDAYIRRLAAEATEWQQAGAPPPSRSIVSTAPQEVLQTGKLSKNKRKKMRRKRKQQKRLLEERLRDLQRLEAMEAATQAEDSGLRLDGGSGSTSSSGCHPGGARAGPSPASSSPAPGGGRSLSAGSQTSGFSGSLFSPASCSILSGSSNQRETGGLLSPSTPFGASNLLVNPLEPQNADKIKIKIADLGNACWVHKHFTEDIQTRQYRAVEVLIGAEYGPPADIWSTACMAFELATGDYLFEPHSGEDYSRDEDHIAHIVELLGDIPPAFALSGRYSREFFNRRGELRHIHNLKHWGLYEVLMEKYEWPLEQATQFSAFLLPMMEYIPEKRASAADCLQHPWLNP

[28] = target: Serine/threonine-protein kinase Nek4 (Homo sapiens) (UniProt P51957); assay: Inhibition of NEK4 (unknown origin) at 0.1 uM relative to control
[29] = target: Serine/threonine-protein kinase Nek6 (Homo sapiens) (UniProt Q9HC98); assay: Inhibition of NEK6 (unknown origin) at 0.1 uM relative to control
[30] = target: PAS domain-containing serine/threonine-protein kinase (Homo sapiens) (UniProt Q96RG2); assay: Inhibition of PASK (unknown origin) at 0.1 uM relative to control
[31] = target: Phosphatidylinositol 4,5-bisphosphate 3-kinase catalytic subunit delta isoform (Homo sapiens) (UniProt O00329); assay: Inhibition of PI3Kdelta (unknown origin) at 0.1 uM relative to control
[32] = target: Protein kinase C delta type (Homo sapiens) (UniProt Q05655); assay: Inhibition of PKCdelta (unknown origin) at 0.1 uM relative to control
[33] = target: Protein kinase C zeta type (Homo sapiens) (UniProt Q05513); assay: Inhibition of PKCzeta (unknown origin) at 0.1 uM relative to control
[34] = target: Phosphorylase b kinase gamma catalytic chain, liver/testis isoform (Homo sapiens) (UniProt P15735); assay: Inhibition of PhKgamma2 (unknown origin) at 0.1 uM relative to control
[35] = target: Proto-oncogene tyrosine-protein kinase ROS (Homo sapiens) (UniProt P08922); assay: Inhibition of Ros (unknown origin) at 0.1 uM relative to control
[36] = target: Ribosomal protein S6 kinase alpha-1 (Homo sapiens) (UniProt Q15418); assay: Inhibition of Rsk1 (unknown origin) at 0.1 uM relative to control
[37] = target: BDNF/NT-3 growth factors receptor (Homo sapiens) (UniProt Q16620); assay: Inhibition of TrkB (unknown origin) at 0.1 uM relative to control
Sequence of BDNF/NT-3 growth factors receptor (Homo sapiens) (Q16620 32-822 limits assumed): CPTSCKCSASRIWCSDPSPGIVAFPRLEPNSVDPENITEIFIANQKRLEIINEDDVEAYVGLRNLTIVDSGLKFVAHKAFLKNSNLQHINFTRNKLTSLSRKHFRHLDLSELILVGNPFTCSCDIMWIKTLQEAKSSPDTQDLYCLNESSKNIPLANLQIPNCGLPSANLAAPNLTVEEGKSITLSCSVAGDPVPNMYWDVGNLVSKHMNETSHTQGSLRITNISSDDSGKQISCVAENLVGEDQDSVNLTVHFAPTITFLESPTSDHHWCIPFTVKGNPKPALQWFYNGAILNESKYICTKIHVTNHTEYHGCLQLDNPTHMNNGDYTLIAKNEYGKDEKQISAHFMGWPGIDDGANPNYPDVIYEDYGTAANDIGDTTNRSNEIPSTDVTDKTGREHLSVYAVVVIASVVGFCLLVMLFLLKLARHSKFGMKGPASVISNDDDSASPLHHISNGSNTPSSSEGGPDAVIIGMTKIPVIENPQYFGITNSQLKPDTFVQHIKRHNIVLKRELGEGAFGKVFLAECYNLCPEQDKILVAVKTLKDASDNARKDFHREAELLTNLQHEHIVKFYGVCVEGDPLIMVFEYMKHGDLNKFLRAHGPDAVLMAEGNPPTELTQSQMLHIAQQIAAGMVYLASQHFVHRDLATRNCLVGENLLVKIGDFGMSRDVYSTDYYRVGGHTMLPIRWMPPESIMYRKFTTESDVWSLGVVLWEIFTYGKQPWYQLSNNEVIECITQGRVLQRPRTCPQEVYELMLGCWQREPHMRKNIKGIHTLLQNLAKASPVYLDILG

[38] = target: Serine/threonine-protein kinase 25 (Homo sapiens) (UniProt O00506); assay: Inhibition of YSK1 (unknown origin) at 0.1 uM relative to control

Sequence of Tyrosine-protein kinase Fes/Fps (Homo sapiens) (P07332 whole entry): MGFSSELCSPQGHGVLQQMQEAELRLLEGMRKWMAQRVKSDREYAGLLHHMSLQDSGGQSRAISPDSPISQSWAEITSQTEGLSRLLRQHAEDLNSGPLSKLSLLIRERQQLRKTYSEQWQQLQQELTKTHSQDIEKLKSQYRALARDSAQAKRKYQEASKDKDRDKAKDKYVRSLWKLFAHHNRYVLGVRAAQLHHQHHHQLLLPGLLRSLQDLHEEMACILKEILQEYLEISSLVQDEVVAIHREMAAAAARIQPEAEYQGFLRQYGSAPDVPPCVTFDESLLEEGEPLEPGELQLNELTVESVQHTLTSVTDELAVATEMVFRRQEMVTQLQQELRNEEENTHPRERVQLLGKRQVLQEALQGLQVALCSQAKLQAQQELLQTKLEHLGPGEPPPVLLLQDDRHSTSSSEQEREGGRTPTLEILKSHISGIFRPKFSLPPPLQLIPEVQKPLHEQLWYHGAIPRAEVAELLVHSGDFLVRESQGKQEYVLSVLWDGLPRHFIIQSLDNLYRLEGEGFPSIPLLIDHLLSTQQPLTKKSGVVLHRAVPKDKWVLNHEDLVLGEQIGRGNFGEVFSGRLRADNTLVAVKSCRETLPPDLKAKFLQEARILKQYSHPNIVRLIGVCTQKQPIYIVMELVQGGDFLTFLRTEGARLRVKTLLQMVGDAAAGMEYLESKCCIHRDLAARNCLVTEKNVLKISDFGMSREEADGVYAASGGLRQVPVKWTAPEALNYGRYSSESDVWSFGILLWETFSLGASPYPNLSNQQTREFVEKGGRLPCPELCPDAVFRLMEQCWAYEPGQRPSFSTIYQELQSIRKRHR

- inhibition [1]: 4.3%
- inhibition [2]: 38.3%
- inhibition [3]: 105%
- inhibition [4]: 99.8%
- inhibition [5]: 24.8%
- inhibition [6]: 85.5%
- inhibition [7]: 57.3%
- inhibition [8]: 42.4%
Structure (SMILES): CN1CCc2cc(-c3cnc4[nH]cc(C(=O)c5ccccc5Cl)c4c3)ccc2C1

- inhibition [9]: 1.9%
- inhibition [10]: 6.6%
- inhibition [11]: 1.9%
- inhibition [12]: 8.9%
- inhibition [13]: 11.7%
- inhibition [14]: 10.9%
- inhibition [15]: 0.5%
- inhibition [16]: 5.5%
- inhibition [17]: 3.5%
- inhibition [18]: 3.6%
- inhibition [19]: 13.1%
- inhibition [20]: -9.6%
- inhibition [21]: 1.1%
- inhibition [22]: 6%
- inhibition [23]: 7.6%
- inhibition [24]: 4.8%
- inhibition [25]: 4.1%
- inhibition [26]: -2.7%
- inhibition [27]: 9.8%
- inhibition [28]: 2%
- inhibition [29]: 9.9%
- inhibition [30]: 15.9%
- inhibition [31]: -4.8%
- inhibition [32]: 0.5%
- inhibition [33]: 22.8%
- inhibition [34]: 17.3%
- inhibition [35]: 6.8%
- inhibition [36]: 6.7%
- inhibition [37]: 15.1%
- inhibition [38]: 6.5%
Structure (SMILES): COCCNc1nc2ccc(C#CC3(O)CCCCC3)cc2n1-c1ccnc(N)n1

— ChEMBL document CHEMBL5678812, “Inhibitors of p21-activated kinases (PAKs)” (J Med Chem, 2015)
